# How the values were obtained:
# PAEC = assay: Trypan Blue viability assay and total cell counts; format: cell-based, human
# PKC = PKC and p-PKC protein expression in lung tissue of SuHx rats (immunoblot); format: in vivo, rat; conditions: whole lung tissue, 5 mg/kg daily oral gavage
# Protocol: Experimental PAH was induced in male Sasco Sprague Dawley rats by subcutaneous injection of 20 mg/kg body weight SU5416.
# [1] = tested on: FHIT−/− C57BL/6 mice in hypoxia; assay: Hypoxia-induced PH in Fhit−/− mice; format: in vivo, mouse
# Protocol: Experimental PAH will be assessed based on Right Ventricular (RV) Systolic Pressure measurements through right jugular vein catheterization and RV hypertrophy was assessed by the weight ratio of the RV to left ventricle+septum. Vessel loss and muscularization of lung vessels will be visualized by MOVAT pentachrome stain or IF staining with αSMA and avWF antibodies.
# (§1) Fhit homozygous (−/−) mice were obtained from Kay F. Huebner (Ohio State University). Bmpr2+/− mice were a gift from Marlene Rabinovitch (Stanford University). Adult wildtype C57BL/6 mice, Bmpr2+/− or Fhit−/− mice at 8-10 weeks of age were housed in chronic hypoxia (10% O2) for 3 weeks, followed by a recovery period of 4 weeks in normoxia (21% O2). […] Development of experimental PH was induced in adult Sprague Dawley rats (8 weeks old, 180-220 g) through a subcutaneous dose of the VEGFR-2 inhibitor SUGEN5416 (20 mg/kg body weight), followed by exposure to chronic hypoxia (10% O2) for 3 weeks and normoxia for 5 weeks (21% O2), as previously described(12). […] Right Ventricular (RV) Systolic Pressure was measured through right jugular vein catheterization, and RV hypertrophy (RVH) was assessed by the weight ratio of the RV to left ventricle and septum (LV+S).
# FIGS. 23B-23C, ΔΔCt analysis of mRNA expression in lung tissue.
# PASMC = assay: MTT proliferation assay in PASMC; format: cell-based, human; conditions: siFHIT PASMC, Enzastaurin 5 M as printed
# [2] = tested on: hypoxia-induced experimental PAH in C57BL/6 and BMPR2+/− C57BL/6 mice; assay: Hypoxia-induced experimental PAH in wildtype and Bmpr2+/− mice; format: in vivo, mouse
# Protocol: Right Ventricular (RV) Systolic Pressure was measured through right jugular vein catheterization and RV hypertrophy was assessed by the weight ratio of the RV to left ventricle+septum. Vessel loss and muscularization of lung vessels were visualized by MOVAT pentachrome stain. […] Arrows indicate vessel position. FIG. 3F, Representative MOVAT lung histology depicting vessel structure. Arrows indicate vessel position.
# as §1
# FIG. 24E, Representative MOVAT lung histology. Arrows indicate vessel position. FIGS. 24F-24G, Representative MOVAT lung histology of large (FIG. 24F) and small vessels (FIG. 24G) respectively. Arrows indicate vessel position.
# Caspase 3/7 in PAECs = assay: Caspase-Glo 3/7 apoptosis assay; format: cell-based, human
# Protocol: Assays were conducted according to the manufacturer's instructions and as previously described(E1,E9).
# Quantified area=% of cells that show nuclear γH2AX staining quantified with automated software (white nuclei=positive stain, grey nuclei=background stain). […] FIGS. 9G-9H, MTT proliferation assay in Enzastaurin-treated (0.5-50 M) in PASMC and PAEC, respectively. (n=3). FIGS. 9I-9J, MTT proliferation assay in Enzastaurin-treated (5 M) siFHIT and siBMPR2 transfected PASMC compared to Ntsi control, respectively. (n=3).
# As a cumulative viability measurement, we quantified caspase3/7 activity, using the luminescent Caspase-Glo®3/7 assay(36) and DNA damage, using histone H2AX phosphorylation by immunofluorescence and quantification as nuclear area staining (%) by confocal microscopy(34, 35, 37). […] PAEC proliferation was assessed via an MTT proliferation assay and hemocytometer cell counts(36).
# [3] = C57BL/6 FHIT−/− mice, 3 weeks hypoxia, 5 mg/kg daily by osmotic pump, method in future tense
# [4] = Fhit−/− mice, hypoxia, 5 mg/kg/day via mini osmotic pump
# [5] = 3 weeks hypoxia, 5 mg/kg daily by mini-osmotic pump, C57BL/6 and BMPR2+/− mice
# [6] = 3 weeks hypoxia, 15 mg/kg/day by mini-osmotic pump, Bmpr2+/− and wildtype mice
smiles,measurement,setting,value
"Cn1cc(C2=C(c3cn(C4CCN(Cc5ccccn5)CC4)c4ccccc34)C(=O)NC2=O)c2ccccc21 [Enzastaurin, 3-(1-methyl-1H-indol-3-yl)-4-[1-[1-(pyridin-2-ylmethyl)piperidin-4-yl]-1H-indol-3-yl]-1H-pyrrole-2,5-dione]",Total cell counts,PAEC; Enzastaurin up to 50 μM,increased cell numbers
same,Cell toxicity by Trypan Blue viability assay,PAEC; varying concentrations of Enzastaurin,did not elicit cell toxicity
same,PKC activation as measured by its phosphorylation,PKC,did not observe a significant decrease
same,FHIT levels (FIG. 5C),[1]; [3],fails to increase FHIT levels
same,PKC levels (FIG. 5C),[1]; [3],effectively downregulating PKC levels
same,Pulmonary hypertension development (FIG. 5C),[1]; [3],does not protect from pulmonary hypertension development
same,BMPR2 expression in whole lung tissue,[1]; [4],increased
same,FHIT mRNA expression in lung tissue,[1]; [4],unmeasurably low
same,ID1 expression in whole lung tissue,[1]; [4],increased
same,PH,[1]; [4],improved PH
same,RVSP,"[1]; male FHIT−/− mice, 3 weeks hypoxia, 5 mg/kg by mini-osmotic pump, vs Sham control",protects from increased RVSP
same,Increased PASMC proliferation induced by reductions in FHIT (MTT),PASMC,rescued
same,"Hypoxia-induced PH (changes in RVSP, RVH and pulmonary physiology)","[2]; 2-week treatment, 15 mg/kg/day, Bmpr2+/− and wild-type C57BL/6 mice",attenuated
same,Right ventricle systolic pressure (RVSP),"[2]; 3 weeks hypoxia, 5 mg/kg daily by mini-osmotic pump, vs hypoxia vehicle control",partial reduction
same,Full or partial muscularization of AW and AD vessels,[2]; [5],significantly ameliorated
same,Loss of alveolar wall (AW) and alveolar duct (AD) pulmonary vessels,[2]; [5],significantly ameliorated
same,Right ventricle (RV) hypertrophy (RV/LV+S),[2]; [5],substantial reduction
same,Muscularization of distal vessels,[2]; [6],prevented
same,RVH increase,[2]; [6],prevented
same,RVSP increase,[2]; [6],prevented
same,Vascular rarefaction,[2]; [6],prevented
same,Caspase 3/7-mediated apoptosis in synchronised PAECs,"Caspase 3/7 in PAECs; 24 hours, 5 μM or 15 μM Enzastaurin, 5 μM Ly333531 hydrochloride",decreases
same,Caspase 3/7 luminescence (apoptosis) in siBMPR2 and siFHIT PAEC,"Caspase 3/7 in PAECs; t=48 h post-transfection, 15 μM Enzastaurin",decreased
